This passage reports EC50 results from patent US8362004B2, “Piperazine analogs as broad-spectrum influenza antivirals” (priority 2010, dated 2013).

SMILES strings stand for the structures. Like-named read-outs stand apart in the source and are kept apart here.

In one experiment the test system is influenza A/WSN/33. The experiment in a line: Antiviral assay in MDCK cells, viral neuraminidase (MUNANA) readout, A/H1N1/WSN. It is filed as cell-based. The note with it: read-out: A/H1N1/WSN Activity.
Experiment [1] relates to Influenza A/Solomon Islands/3/06. Description: Antiviral assay in MDCK cells, viral neuraminidase (MUNANA) readout, A/H1N1/Solomon Islands. The note with it: read-out: A/H1N1/Solomon Islands Activity. The experiment is classed as cell-based.
For experiment [2], the system named is influenza A/Brisbane/10/2007. The experiment in a line: Antiviral assay in MDCK cells, viral neuraminidase (MUNANA) readout, A/H3N2/Brisbane. The experiment is classed as cell-based. The following applies: read-out: A/H3N2/Brisbane Activity.
For the next experiment, the system named is A/H5N1/Duck_MN. The experiment in a line: microbe, parasite or virus in culture. The experiment is classed as cell-based, influenza A. The note with it: read-out: A/H5N1/Duck_MN.
For the next experiment, the system named is A/H5N1/Duck_PA. Description: microbe, parasite or virus in culture. The following applies: read-out: A/H5N1/Duck_PA. The experiment is classed as cell-based, influenza A.
Another experiment concerns A/H5N1/Gull_PA. The experiment in a line: microbe, parasite or virus in culture. The experiment is classed as cell-based, influenza A. The following applies: read-out: A/H5N1/Gull_PA.
Where [3] appears, read: MDCK cells, MOI 0.001, 48 hrs post infection, viral NA activity.
Where [4] appears, read: Influenza A virus, H1N1, MDCK, 48 h.
Setting [5] is: Influenza A virus, H3N2, MDCK, 48 h.

Regarding `COc1ccccc1-c1noc(C)c1C(=O)N1CCN(c2cc(NC(=O)c3ccc(-c4nnc(C)o4)cc3)c([N+](=O)[O-])cc2Cl)CC1` [Example 38], the figures for the EC50 (in the experiment with influenza A/WSN/33 (setting [3]); in experiment [1] (setting [3]); in experiment [2] (setting [3])) were under 1000 nM, under 1000 nM and under 100 nM, respectively.
For the molecule `CCOc1ccc(C(=O)Nc2cc(N3CCN(C(=O)c4c(-c5ccccc5OC)noc4C)CC3)c(Cl)cc2[N+](=O)[O-])cc1` [Example 15], the EC50 in the experiment with A/H5N1/Duck_MN was under 1000 nM; in the experiment with A/H5N1/Duck_PA it was under 1000 nM; in the experiment with A/H5N1/Gull_PA, under 100 nM.
Take `COc1ccccc1-c1nnn(C)c1C(=O)N1CCN(c2cc(NC(=O)c3ccc(N4CCCS4(=O)=O)cc3)c(Br)cc2Cl)CC1` [Example 120, N-(4-chloro-5-(4-(4-(2-methoxyphenyl)-1-methyl-1H-1,2,3-triazole-5-carbonyl)piperazin-1-yl)-2-bromophenyl)-4-(1,1-dioxidoisothiazolidin-2-yl)benzamide]: the EC50 was under 1000 nM with influenza A/WSN/33 (Influenza A virus, MDCK, 48 h); under 1000 nM in experiment [1] (setting [4]); under 10000 nM in experiment [2] (setting [5]).
Regarding `COc1ccc(C(=O)Nc2cc(N3CCN(C(=O)c4c(-c5ccccc5OC)ncn4C)CC3)c(Cl)cc2[N+](=O)[O-])cc1` [Example 102], the EC50 is under 100 nM in the experiment with influenza A/WSN/33 (setting [3]), under 1000 nM in experiment [1] (setting [3]) and under 10000 nM in experiment [2] (setting [3]).
For `COc1ccccc1-c1noc(C)c1C(=O)N1CCN(c2cc(NC(=O)c3ccc(N(C)C)cc3)c(C)cc2Br)CC1` [Example 54], the EC50 in the experiment with influenza A/WSN/33 (setting [3]) is under 1000 nM; in experiment [1] (setting [3]), under 1000 nM; in experiment [2] (setting [3]) it was under 10000 nM.
In the case of `COc1ccc(C(=O)Nc2cc(N3CCN(C(=O)c4c(-c5ccccc5OC)noc4C)CC3)c(Cl)cc2[N+](=O)[O-])cc1` [Example 1, N-(4-chloro-5-(4-(3-(2-methoxyphenyl)-5-methylisoxazole-4-carbonyl)piperazin-1-yl)-2-nitrophenyl)-4-methoxybenzamide], the EC50 in the experiment with influenza A/WSN/33 (Influenza A virus, MDCK, 48 h) is under 100 nM; in experiment [1] (setting [4]), under 100 nM; in experiment [2] (setting [5]), under 1000 nM.
With `COc1ccc(C(=O)Nc2cc(N3CCN(C(=O)c4c(-c5ccccc5OC)noc4C)CC3)c(C#N)cc2Cl)cc1` [Example 66], the EC50 (in the experiment on influenza A/WSN/33 (setting [3]); in experiment [1] (setting [3]); in experiment [2] (setting [3])) was under 10000 nM throughout.
Regarding `COc1ccccc1-c1nnn(C)c1C(=O)N1CCN(c2cc(NC(=O)c3ccc(N4CCCC4=O)cc3)c([N+](=O)[O-])cc2Cl)CC1` [Example 84, N-(4-chloro-5-(4-(4-(2-methoxyphenyl)-1-methyl-1H-1,2,3-triazole-5-carbonyl)piperazin-1-yl)-2-nitrophenyl)-4-(2-oxopyrrolidin-1-yl)benzamide], the EC50 is under 100 nM in the experiment on influenza A/WSN/33 (Influenza A virus, MDCK, 48 h); under 100 nM in experiment [1] (setting [4]); under 100 nM in experiment [2] (setting [5]).
For `COc1ccccc1-n1ncc(C)c1C(=O)N1CCN(c2cc(NC(=O)c3ccc(N(C)C)cc3)c([N+](=O)[O-])cc2Cl)CC1` [Example 73], the EC50 in the experiment on influenza A/WSN/33 (setting [3]) is under 1000 nM; in experiment [1] (setting [3]), under 100 nM; in experiment [2] (setting [3]) it was under 1000 nM.
With `COc1ccccc1-c1noc(C)c1C(=O)N1CCN(c2cc(NC(=O)c3ccc(SC)cc3)c([N+](=O)[O-])cc2Cl)CC1` [Example 11], the EC50 was under 1000 nM in the experiment on A/H5N1/Duck_MN, under 100 nM in the experiment on A/H5N1/Duck_PA and under 100 nM in the experiment with A/H5N1/Gull_PA.
Regarding `COc1ccccc1-c1ncn(C)c1C(=O)N1CCN(c2cc(NC(=O)c3ccc(N(C)C)cc3)c([N+](=O)[O-])cc2Cl)CC1` [Example 81], the EC50 with influenza A/WSN/33 (setting [3]) is under 100 nM; in experiment [1] (setting [3]) it was under 100 nM; in experiment [2] (setting [3]), under 10000 nM.
For `COc1ccccc1-c1noc(C)c1C(=O)N1CCN(c2cc(NC(=O)C3CCC3)c([N+](=O)[O-])cc2Cl)CC1` [Example 9], the EC50 in the experiment with influenza A/WSN/33 (setting [3]) is under 100 nM; in experiment [1] (setting [3]) it was under 1000 nM; in experiment [2] (setting [3]), under 10000 nM.
In the case of `COc1ccccc1-c1noc(C)c1C(=O)N1CCN(c2cc(NC(=O)c3ccc(N(C)S(C)(=O)=O)cc3)c([N+](=O)[O-])cc2Cl)CC1` [Example 35], the EC50 in the experiment with influenza A/WSN/33 (setting [3]) was under 100 nM; in experiment [1] (setting [3]), under 100 nM; in experiment [2] (setting [3]) it was under 1000 nM.
As to `COc1ccccc1-c1noc(C)c1C(=O)N1CCN(c2cc(NC(=O)c3ccc(N(C)C)cc3)c([N+](=O)[O-])cc2C#N)CC1` [Example 68], the EC50 was under 1000 nM with influenza A/WSN/33 (setting [3]), under 100 nM in experiment [1] (setting [3]) and under 100 nM in experiment [2] (setting [3]).
`COc1ccccc1-c1nnn(C)c1C(=O)N1CCN(c2cc(NC(=O)c3ccc(N4CCCC4=O)cc3)c([N+](=O)[O-])cc2C#N)CC1` [Example 122, N-(4-cyano-5-(4-(4-(2-methoxyphenyl)-1-methyl-1H-1,2,3-triazole-5-carbonyl)piperazin-1-yl)-2-nitrophenyl)-4-(2-oxopyrrolidin-1-yl)benzamide]: the EC50 with influenza A/WSN/33 (Influenza A virus, MDCK, 48 h) is under 1000 nM; in experiment [1] (setting [4]), under 1000 nM; in experiment [2] (setting [5]), under 1000 nM.
In the case of `COc1ccccc1-c1nnn(C)c1C(=O)N1CCN(c2cc(NC(=O)c3ccc(N4CCCS4(=O)=O)cc3)c([N+](=O)[O-])cc2Cl)CC1` [Example 92], the EC50 in the experiment on influenza A/WSN/33 (setting [3]) is under 100 nM; in experiment [1] (setting [3]), under 100 nM; in experiment [2] (setting [3]), under 1000 nM.
Take `COc1ccccc1-c1n[nH]c(C)c1C(=O)N1CCN(c2cc(NC(=O)c3ccc(N(C)C)cc3)c([N+](=O)[O-])cc2Cl)CC1` [Example 70, N-(4-chloro-5-(4-(3-(2-methoxyphenyl)-5-methyl-1H-pyrazole-4-carbonyl)piperazin-1-yl)-2-nitrophenyl)-4-(dimethylamino)benzamide]: the EC50 in the experiment with influenza A/WSN/33 (Influenza A virus, MDCK, 48 h) was under 100 nM; in experiment [1] (setting [4]), under 1000 nM; in experiment [2] (setting [5]), under 10000 nM.
Consider `COc1ccccc1-c1noc(C)c1C(=O)N1CCN(c2cc(NC(=O)c3ccc(C)cc3)c([N+](=O)[O-])cc2Cl)CC1` [Example 24], for which the EC50 is under 100 nM in the experiment with influenza A/WSN/33 (setting [3]), under 100 nM in experiment [1] (setting [3]) and under 10000 nM in experiment [2] (setting [3]).
For `COc1ccccc1-c1noc(C)c1C(=O)N1CCN(c2cc(NC(=O)c3nccs3)c(Cl)cc2Cl)CC1` [Example 56], the results for the EC50 (in the experiment with influenza A/WSN/33 (setting [3]); in experiment [1] (setting [3]); in experiment [2] (setting [3])) were under 1000 nM, under 10000 nM and under 10000 nM, respectively.
With `COc1ccccc1-c1noc(C)c1C(=O)N1CCN(c2nc(NC(=O)c3ccc(N(C)C)cc3)c(Cl)cc2Cl)CC1` [Example 52], the values for the EC50 (in the experiment on influenza A/WSN/33 (setting [3]); in experiment [1] (setting [3]); in experiment [2] (setting [3])) were under 1000 nM, under 1000 nM and under 10000 nM, respectively.
With `Cc1c[nH]c(-c2ccccc2Cl)c1C(=O)N1CCN(c2cc(NC(=O)c3ccc(N(C)C)cc3)c([N+](=O)[O-])cc2Cl)CC1` [Example 72], the values for the EC50 (in the experiment on influenza A/WSN/33 (setting [3]); in experiment [1] (setting [3]); in experiment [2] (setting [3])) were under 100 nM, under 100 nM and under 1000 nM, respectively.
On to `COc1ccccc1-c1noc(C)c1C(=O)N1CCN(c2cc(NC(=O)c3ccc(N(C)C)cc3)c(Cl)cc2Cl)CC1` [Example 55], for which the EC50 in the experiment with influenza A/WSN/33 (setting [3]) was under 100 nM; in experiment [1] (setting [3]), under 100 nM; in experiment [2] (setting [3]), under 1000 nM.
In the case of `COc1ccccc1-c1noc(C)c1C(=O)N1CCN(c2cc(NC(=O)c3ccc(N4CCCC4=O)cc3)c([N+](=O)[O-])cc2Cl)CC1` [Example 47, N-(4-chloro-5-(4-(3-(2-methoxyphenyl)-5-methylisoxazole-4-carbonyl)piperazin-1-yl)-2-nitrophenyl)-4-(2-oxopyrrolidin-1-yl)benzamide], the EC50 in the experiment with influenza A/WSN/33 (Influenza A virus, MDCK, 48 h) is under 100 nM; in experiment [1] (setting [4]), under 100 nM; in experiment [2] (setting [5]), under 1000 nM.
As to `COc1ccccc1-c1noc(CF)c1C(=O)N1CCN(c2cc(NC(=O)c3ccc(N(C)C)cc3)c(Cl)cc2Cl)CC1` [Example 69, N-(2,4-dichloro-5-(4-(5-(fluoromethyl)-3-(2-methoxyphenyl)isoxazole-4-carbonyl)piperazin-1-yl)phenyl)-4-(dimethylamino)benzamide], the EC50 in the experiment on influenza A/WSN/33 (Influenza A virus, MDCK, 48 h) was under 1000 nM; in experiment [1] (setting [4]), under 1000 nM; in experiment [2] (setting [5]), under 10000 nM.
As to `COc1ccccc1-c1ncn(C)c1C(=O)N1CCN(c2cc(NC(=O)c3ccc(N(C)C)cc3)c([N+](=O)[O-])cc2C#N)CC1` [Example 124], the EC50 (in the experiment with influenza A/WSN/33 (setting [3]); in experiment [1] (setting [3]); in experiment [2] (setting [3])) was under 100 nM in each case.
Regarding `COc1ccccc1-c1noc(C)c1C(=O)N1CCN(c2cc(NC(=O)c3ccc(N(C)C)cc3)c(C#N)cc2Cl)CC1` [Example 65], the EC50 in the experiment on influenza A/WSN/33 (setting [3]) is under 100 nM; in experiment [1] (setting [3]) it was under 1000 nM; in experiment [2] (setting [3]), under 10000 nM.
For `COc1ccc(C(=O)Nc2nc(N3CCN(C(=O)c4c(-c5ccccc5OC)noc4C)CC3)c(Cl)cc2[N+](=O)[O-])cc1` [Example 43], in that order: under 1000 nM, under 1000 nM and under 100 nM.
Turning to `COc1ccccc1-c1noc(C)c1C(=O)N1CCN(c2cc(NC(=O)c3ccc(-n4cncn4)cc3)c([N+](=O)[O-])cc2Cl)CC1` [Example 37], the EC50 in the experiment on influenza A/WSN/33 (setting [3]) is under 100 nM; in experiment [1] (setting [3]), under 100 nM; in experiment [2] (setting [3]), under 1000 nM.
Turning to `C=Cc1cc(Cl)c(N2CCN(C(=O)c3c(-c4ccccc4OC)noc3C)CC2)cc1NC(=O)c1ccc(N(C)C)cc1` [Example 125, N-(4-chloro-5-(4-(3-(2-methoxyphenyl)-5-methylisoxazole-4-carbonyl)piperazin-1-yl)-2-vinylphenyl)-4-(dimethylamino)benzamide], the EC50 was under 1000 nM in the experiment with influenza A/WSN/33 (Influenza A virus, MDCK, 48 h); under 1000 nM in experiment [1] (setting [4]); under 10000 nM in experiment [2] (setting [5]).
